Experimental findings from publication PMC4887995, “Small molecule dual-inhibitors of TRPV4 and TRPA1 for attenuation of inflammation and pain” (Scientific Reports, 2016) are described below.

“Also recorded” adds a separate entry of the source.

The target in one data set is T1, TRPV4 (Sus scrofa, UniProt B3VP30).
T1 construct: primary cells, which express functional and biologically-relevant TRPV4 without directed over-expression of the channel; endogenous in cells; host or cells: primary porcine articular chondrocytes (femoral condyles)
T1 sequence (B3VP30 1-871): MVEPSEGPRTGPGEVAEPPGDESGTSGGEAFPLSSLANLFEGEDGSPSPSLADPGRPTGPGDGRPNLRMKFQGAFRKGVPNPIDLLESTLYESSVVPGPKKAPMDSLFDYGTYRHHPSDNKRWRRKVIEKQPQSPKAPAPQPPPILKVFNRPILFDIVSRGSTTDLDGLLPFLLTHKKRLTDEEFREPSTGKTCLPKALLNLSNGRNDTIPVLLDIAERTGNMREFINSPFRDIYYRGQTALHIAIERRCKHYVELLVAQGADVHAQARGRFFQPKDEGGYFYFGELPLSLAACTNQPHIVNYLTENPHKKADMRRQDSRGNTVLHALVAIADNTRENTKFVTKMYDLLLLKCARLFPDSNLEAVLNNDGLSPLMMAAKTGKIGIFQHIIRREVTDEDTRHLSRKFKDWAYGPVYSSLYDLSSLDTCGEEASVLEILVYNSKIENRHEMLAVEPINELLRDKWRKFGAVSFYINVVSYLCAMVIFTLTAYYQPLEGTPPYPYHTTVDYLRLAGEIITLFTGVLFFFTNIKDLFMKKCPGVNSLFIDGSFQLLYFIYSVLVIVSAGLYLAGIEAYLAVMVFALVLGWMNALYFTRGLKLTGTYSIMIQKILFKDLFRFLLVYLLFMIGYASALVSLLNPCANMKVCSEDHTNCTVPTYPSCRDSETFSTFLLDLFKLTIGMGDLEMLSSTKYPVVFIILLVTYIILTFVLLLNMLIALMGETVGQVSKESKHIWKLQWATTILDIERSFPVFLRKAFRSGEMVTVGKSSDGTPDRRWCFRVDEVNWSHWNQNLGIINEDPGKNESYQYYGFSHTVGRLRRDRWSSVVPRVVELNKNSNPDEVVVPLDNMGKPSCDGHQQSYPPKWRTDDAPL
Briefly: Ca++ imaging in primary articular chondrocytes, GSK101 stimulation. As to conditions: GSK101 5 nM. The format is cell-based, pig. The method, then: Figure 4 Compound 16-8 inhibits TRPV4 in I˚ cells more potently than GSK205. […] Inset: Chondrocytes responding to activation with GSK101, fura-2 Ca^++ imaging; right-hand image taken at 5 sec after GSK101 application. […] (B) I˚ astrocytes (rat); dose-response comparison between 16-8 and GSK205 in response to 5 nM GSK101. Inset: Astrocytes responding to activation with GSK101; right-hand image taken at 5 sec after GSK101 application (mean ± SEM, n = 5 independent expts, n ≥ 200 cells/expt; *p < 0.05, t-test).
Primary porcine chondrocytes derived from femoral condyles of skeletally mature pigs were cultured and subjected to Ca^++ imaging as described previously.

Data set [1] relates to caerulein-evoked acute pancreatitis. The data set can be described thus: Caerulein-induced acute pancreatitis mouse model. The class given is in vivo. As to conditions: 10 mg/kg i.p., 30 min before caerulein. The method, then:
C57BL/6J male mice 8–10 weeks of age were subjected to acute pancreatitis by intraperitoneal injections of supramaximal doses of caerulein (50 μg/kg) every hour for a total of 6 h, as previously described in[61]. Control animals received 25% DMSO-saline solution by intraperitoneal injection every hour for 6 h. Compound 16-8 was dissolved in this vehicle (10 mg/kg) and injected i.p. 30 min prior to the first injection of caerulein. Animals were sacrificed 1 h after the last injection. Blood was collected and pancreatic tissue was promptly isolated, weighed for determination of pancreas wet weight/body weight ratio. Samples of tissues were fixed overnight in 10% neutral-buffered formalin, paraffin embedded and H&E-stained, or pancreatic tissue was quickly frozen and assessed for myeloperoxidase (MPO) activity. Serum amylase, MPO and histologic evaluation were conducted as described previously. Assessment of nocifensive behavior[8]: Mice were housed in individual cages and video-recorded during the entire experiment. Two mice at a time were observed. Linear movement was measured as one event when mice passed through the median plane of the cage. Analysis began immediately after the first caerulein/vehicle injection and continued until the end of the experiment. Results were expressed as the sum of the movement events spanning the 6 h time-period following the first injection.

A short description of data set [2]: Stability of compound in plasma. As to conditions: 4 h incubation in plasma at 37 °C. The class given is in vitro ADME.

As for `CN(CCc1ccc(Nc2nc(-c3ccccc3)cs2)cc1)Cc1ccccc1` [16-8], the “potency vs GSK205, dose-response of peak ∆Ca++” value at TRPV4 is recorded as “significantly more potent than GSK205”. Besides, in data set [1], the “histopathological score for pancreas inflammation” value is “significantly reduced; also recorded: significant reduction”; the “myelo-peroxidase (MPO)” value was “significantly reduced”; the “pain behavior (nocifensive behavior, 6 h test period)” value is “virtually eliminated; also recorded: significantly reduced”; the pancreatic edema result is “virtually eliminated”.

`CCN(CCc1ccc(Nc2nc(-c3ccccc3)cs2)cc1)Cc1ccccc1` [16-19]: the stability in plasma result in data set [2] is given as “stable; also recorded: no loss of detectable compound”.
